{"source": "paper PMC7352342", "about": "“Inhibition of Patched Drug Efflux Increases Vemurafenib Effectiveness against Resistant Braf^V600E Melanoma” (Cancers, 2020)", "key": {"WM9R cells": {"system": "WM9R cells", "test": "Wound-healing assay, WM9R cells", "assay_type": "cell-based", "details": "48 h after wounding, sPAH added to vemurafenib", "experimental": "(§1) Once cells were confluent in 24-well plates, a wound was created using a p200 tip. Two pictures were taken at two different points of each well immediately after wounding, and 48 h after wounding. Images were taken with Leica DM IRB (5×). The width of the wound was measured using ImageJ software and reported as percentage final wound width/initial wound width."}, "MeWo cells": {"system": "MeWo cells", "test": "Dxr efflux measurement by fluorescence microscopy, MeWo cells", "assay_type": "cell-based, human", "details": "30 min in efflux buffer", "experimental": "Dxr efflux measurements were carried out as previously described. Cells were seeded on coverslips in 24-well plates and allowed to grow to 80% confluence. Coverslips were incubated at 37 °C and 5% CO2 with 10 μM dxr in physiological buffer (140 mM NaCl, 5 mM KCl, 1 mM CaCl2, 1 mM MgSO4, 5 mM glucose, 20 mM HEPES, pH 7.4). After 2 h, three coverslips were immediately fixed with 4% PFA for the dxr loading control, rapidly washed with PBS and mounted in SlowFade Gold antifade reagent with DAPI (Invitrogen). The other coverslips (triplicated per condition) were incubated with physiological buffer supplemented with DMSO or 10 µM of PAH under gentle shaking at room temperature and protected from light. After 30 min, coverslips were fixed with 4% PFA, washed, and mounted as described above. For competition on dxr loading, A375 and WM9R cells seeded on coverslips were incubated for 1 h at 37 °C and 5% CO2 with 10 μM dxr in physiological buffer in the presence or the absence of 100 µM vemurafenib. Images were acquired with a Zeiss Axioplan 2 fluorescence microscope coupled to a digital charge-coupled device camera using a 40×/1.3 Plan NeoFluar objective and filters for Alexa 594. Dxr fluorescence was quantified using ImageJ software. Sampling of cells was performed randomly. About 100 cells (from three wells) were scored per condition per experiment."}, "A375 cells [1]": {"system": "A375 cells", "test": "BODIPY-cholesterol efflux measurement, A375 cells", "assay_type": "cell-based, human", "details": "sPAH in efflux buffer, 30 min"}, "A375 cells [2]": {"system": "A375 cells", "test": "Wound-healing assay, A375 cells", "assay_type": "cell-based, human", "details": "48 h after wounding, sPAH added to vemurafenib", "experimental": "as §1"}, "WM9S cells": {"system": "WM9S cells", "test": "Cytotoxicity assay (neutral red), WM9S cells", "assay_type": "cell-based", "details": "WM9S; 24 h; sPAH between 10 and 20 µM", "experimental": "(§2) Human melanoma cell lines A375 and MeWo were purchased from ATCC, and cultured in DMEM medium supplemented with 10% fetal bovine serum and penicillin/streptomycin (Invitrogen) at 37 °C in a 5% CO2/95% water-saturated air atmosphere. Melanoma cell lines SKMEL 28, SKMEL V3, WM9S, and WM9R were provided by Robert Ballotti (C3M, Nice, France). MeWo-dxrR cells were obtained by adding increasing concentrations of doxorubicin, up to 0.2 µM, in the culture medium over 6 months. These cells were grown in medium supplemented with 0.2 µM dxr. WM9R cells were obtained by adding increasing concentrations of vemurafenib, up to 5 µM, in the culture medium over 6 months. These cells were grown in medium supplemented with 5 µM vemurafenib. HEK cells were grown in 75 mm tissue culture dishes (Falcon, Franklin Lakes, NJ, USA) in Dulbecco’s modified Eagle’s medium (Gibco, Life Technologies, Saint Aubin, France) supplemented with 10% fetal calf serum (Hyclone, Thermo Fisher Scientific GMBH, Ulm, Germany) and 1% penicillin/streptomycin (Gibco, Life Technologies, Saint Aubin, France) in a humidified incubator at 37 °C (5% CO2).\n(§3) Cells were seeded in 96-well plates in triplicate and grown in medium to achieve 70 to 80% confluence. […] Measurements were made in microplate readers (Multiskan Go Microplate Spectrophotometer from Thermo Scientific)."}, "[3]": {"test": "Cytotoxicity assay (neutral red), WM9S cells", "assay_type": "cell-based", "details": "human, WM9S melanoma cells; read-out: sPAH-IC50 (cytotoxicity of sPAH alone)", "experimental": "as §2, §3"}, "A375 cells [4]": {"system": "A375 cells", "test": "Cytotoxicity assay (neutral red), A375 cells", "assay_type": "cell-based, human", "details": "A375", "experimental": "as §2\n(§4) Cells were seeded in 96-well plates in triplicate and grown in medium to achieve 70 to 80% confluence. Medium was then removed and replaced with 100 µL/well of complete medium containing PAH or DMSO as a control. After 2 h, 100 µL of complete medium containing serial dilutions of dxr, cisplatin or vemurafenib were added. Plates were incubated at 37 °C and 5% CO2. After 24 or 48 h, cells were incubated for 3 h at 37 °C with 100 µL/well neutral red (NR) solution (50 µg/mL in medium) following the manufacturer’s protocol. Measurements were made in microplate readers (Multiskan Go Microplate Spectrophotometer from Thermo Scientific)."}, "[5]": {"test": "Cytotoxicity assay (neutral red), A375 cells", "assay_type": "cell-based, human", "details": "human, A375 melanoma cells, A375; 24 or 48 h; read-out: sPAH-IC50 (cytotoxicity of sPAH alone)", "experimental": "as §2, §4"}, "[6]": {"test": "Cytotoxicity assay (neutral red), MeWo cells", "assay_type": "cell-based, human", "details": "human, MeWo melanoma cells, MeWo; 24 or 48 h; read-out: sPAH-IC50 (cytotoxicity of sPAH alone)", "experimental": "as §2, §4"}, "human Smoothened": {"target": "T1, human Smoothened (Homo sapiens, UniProt Q99835)", "T1 construct": "made in house; host or cells: yeast (membrane preparation)", "T1 sequence (Q99835 28-787)": "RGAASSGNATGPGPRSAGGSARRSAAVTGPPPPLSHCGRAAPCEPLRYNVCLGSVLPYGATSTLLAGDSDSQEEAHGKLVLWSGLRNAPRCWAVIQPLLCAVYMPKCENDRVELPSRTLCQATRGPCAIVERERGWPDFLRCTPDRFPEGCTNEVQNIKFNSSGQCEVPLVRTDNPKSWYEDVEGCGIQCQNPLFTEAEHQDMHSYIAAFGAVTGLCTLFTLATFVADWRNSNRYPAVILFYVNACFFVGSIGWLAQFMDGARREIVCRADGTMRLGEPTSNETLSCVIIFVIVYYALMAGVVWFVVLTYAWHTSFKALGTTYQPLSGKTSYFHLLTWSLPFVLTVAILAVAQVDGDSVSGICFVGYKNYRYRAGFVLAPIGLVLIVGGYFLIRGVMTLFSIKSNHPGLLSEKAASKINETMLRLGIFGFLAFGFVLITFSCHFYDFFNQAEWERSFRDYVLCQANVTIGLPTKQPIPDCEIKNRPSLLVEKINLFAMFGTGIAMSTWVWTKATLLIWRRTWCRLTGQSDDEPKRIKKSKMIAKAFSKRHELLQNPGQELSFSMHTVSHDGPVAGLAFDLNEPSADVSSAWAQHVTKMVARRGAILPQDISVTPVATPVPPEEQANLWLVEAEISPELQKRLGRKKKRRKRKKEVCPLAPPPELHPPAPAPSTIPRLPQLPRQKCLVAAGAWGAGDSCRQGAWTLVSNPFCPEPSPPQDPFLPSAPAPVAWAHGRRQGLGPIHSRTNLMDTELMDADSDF", "test": "Microscale thermophoresis on membranes from yeast expressing human Smoothened", "assay_type": "binding", "details": "MST; sPAH 15 nM to 250 µM", "experimental": "Microscale thermophoresis (MST) is a biophysical technique that measures the strength of the interaction between two molecules by detecting a variation in the fluorescence signal of a fluorescently labeled target as a result of an IR-laser induced temperature change. The range of the variation in the fluorescence signal correlates with the binding of a ligand to the fluorescent target.\nMembranes from yeast expressing human Ptch1 or human Smoothened were incubated at 30 µg/mL with 20 nM of the fluorescent dye NT-647 2nd gen (NanoTemper Technologies, München, Germany) to label the His-tag present at the c-terminus of both proteins. […] The fluorescence within the capillary is excited and detected through the same objective. […] The MST response of fluorescent proteins within the temperature gradient is detected. After activation of the IR laser, a decrease in fluorescence is observed which corresponds to temperature-related intensity change (TRIC) triggered by the fast temperature change and thermophoretic movement of the fluorescent proteins out of the heated sample volume. […] For analysis, the change in MST signal is expressed as the change in the normalized fluorescence (Fnorm), which is defined as F1/F0. […] The sPAH Kd was determined for 3 independent experiments."}}}
{"smiles": "COc1cc(C)c(CC/C(C)=C/Cc2cc(O)ccc2O)c(C)c1C", "note": "[sPAH, Panicein A hydroquinone]", "values": [{"measurement": "effect on vemurafenib efficacy against cell migration", "setting": "WM9R cells", "result": "the same effect was observed"}, {"measurement": "inhibition of dxr efflux, synthetic compared with natural PAH", "setting": "MeWo cells", "result": "as efficiently as the natural PAH"}, {"measurement": "efflux of BODIPY-cholesterol", "setting": "A375 cells [1]", "result": "inhibited the efflux of cholesterol"}, {"measurement": "effect on vemurafenib efficacy against cell migration", "setting": "A375 cells [2]", "result": "increased vemurafenib efficacy"}, {"measurement": "sensitivity of cells to vemurafenib in the presence of sPAH", "setting": "WM9S cells", "result": "significantly increased"}, {"measurement": "IC50", "setting": "[3]", "result": "28.6 ± 5.1", "unit": "µM"}, {"measurement": "IC50", "setting": "A375 cells [4]; 24 or 48 h, read-out: sPAH-IC50 (cytotoxicity of sPAH alone)", "result": "38.3 ± 6.8", "unit": "µM"}, {"measurement": "sensitivity of cells to vemurafenib in the presence of sPAH", "setting": "A375 cells [4]; 24 h, sPAH between 10 and 20 µM", "result": "significantly increased"}, {"measurement": "IC50 of cisplatin in the presence of sPAH", "setting": "A375 cells [4]; sPAH 20 µM vs DMSO (Figure S2)", "result": "significantly decreased"}, {"measurement": "IC50", "setting": "[5]", "result": "~40", "unit": "µM"}, {"measurement": "IC50", "setting": "[6]", "result": "36 ± 2.3", "unit": "µM"}, {"measurement": "binding to membranes from yeast expressing Smoothened", "setting": "human Smoothened", "result": "does not bind"}]}
